Values quoted from earlier work in patent US20110052690A1, “PROCESS FOR MANUFACTURE OF A MEDICAMENT WITH GRANULATION AND PAN COATING” (priority 2008, published 2011).
Structures can show the parent of a compound that is named as a salt.

Conditions: plural daily dosing regime, compressed tablets

patients experiencing nausea: about forty five
patients in whom vomiting occurs: about seventeen
Compound: COc1ccc(C(CN(C)C)C2(O)CCCCC2)cc1 (centres unmarked) [venlafaxine hydrochloride, 1-[(2-dimethylamino)-1-(4-methoxyphenyl)ethyl] cyclohexanol]
